According to ChEMBL document CHEMBL4507279, “Data for DCP probe BI-9627” (2021):

Legend:
[1] = target: Proto-oncogene tyrosine-protein kinase receptor Ret (Homo sapiens) (UniProt P07949); settings: Compound concentration 1000.0 nM
[2] = target: Receptor-interacting serine/threonine-protein kinase 1 (Homo sapiens) (UniProt Q13546); settings: Compound concentration 1000.0 nM
[3] = target: Ribosomal protein S6 kinase alpha-3 (Homo sapiens) (UniProt P51812); settings: Compound concentration 1000.0 nM
[4] = target: Phosphatidylinositol 4-phosphate 5-kinase type-1 gamma (Homo sapiens) (UniProt O60331); settings: Compound concentration 1000.0 nM
[5] = target: Proto-oncogene tyrosine-protein kinase ROS (Homo sapiens) (UniProt P08922); settings: Compound concentration 1000.0 nM
[6] = target: Tyrosine-protein kinase Fyn (Homo sapiens) (UniProt P06241); settings: Compound concentration 1000.0 nM
[7] = target: Mitogen-activated protein kinase 13 (Homo sapiens) (UniProt O15264); settings: Compound concentration 1000.0 nM
[8] = target: Homeodomain-interacting protein kinase 4 (Homo sapiens) (UniProt Q8NE63); settings: Compound concentration 1000.0 nM
[9] = target: Macrophage colony-stimulating factor 1 receptor (Homo sapiens) (UniProt P07333); settings: Compound concentration 1000.0 nM
[10] = target: Serine/threonine-protein kinase PLK1 (Homo sapiens) (UniProt P53350); settings: Compound concentration 1000.0 nM
[11] = target: Mitogen-activated protein kinase kinase kinase 11 (Homo sapiens) (UniProt Q16584); settings: Compound concentration 1000.0 nM
[12] = target: Serine/threonine-protein kinase VRK2 (Homo sapiens) (UniProt Q86Y07); settings: Compound concentration 1000.0 nM
[13] = target: Serine/threonine-protein kinase Sgk2 (Homo sapiens) (UniProt Q9HBY8); settings: Compound concentration 1000.0 nM
[14] = target: Serine/threonine-protein kinase B-raf (Homo sapiens) (UniProt P15056); settings: Compound concentration 1000.0 nM
[15] = target: Mitogen-activated protein kinase kinase kinase 6 (Homo sapiens) (UniProt O95382); settings: Compound concentration 1000.0 nM
[16] = target: Tyrosine-protein kinase ABL1 (Homo sapiens) (UniProt P00519); settings: Compound concentration 1000.0 nM
[17] = target: MAP kinase-activated protein kinase 5 (Homo sapiens) (UniProt Q8IW41); settings: Compound concentration 1000.0 nM
[18] = target: Tyrosine-protein kinase Yes (Homo sapiens) (UniProt P07947); settings: Compound concentration 1000.0 nM
[19] = target: Serine/threonine-protein kinase SIK2 (Homo sapiens) (UniProt Q9H0K1); settings: Compound concentration 1000.0 nM
[20] = target: Mitogen-activated protein kinase kinase kinase 10 (Homo sapiens) (UniProt Q02779); settings: Compound concentration 1000.0 nM
[21] = target: Tyrosine-protein kinase SYK (Homo sapiens) (UniProt P43405); settings: Compound concentration 1000.0 nM
[22] = target: G protein-coupled receptor kinase 4 (Homo sapiens) (UniProt P32298); settings: Compound concentration 1000.0 nM
[23] = target: Tyrosine-protein kinase Lyn (Homo sapiens) (UniProt P07948); settings: Compound concentration 1000.0 nM
[24] = target: Mitogen-activated protein kinase 12 (Homo sapiens) (UniProt P53778); settings: Compound concentration 1000.0 nM
[25] = target: Dual serine/threonine and tyrosine protein kinase (Homo sapiens) (UniProt Q6XUX3); settings: Compound concentration 1000.0 nM
[26] = target: Serine/threonine-protein kinase SIK3 (Homo sapiens) (UniProt Q9Y2K2); settings: Compound concentration 1000.0 nM
[27] = target: Serine/threonine-protein kinase pim-2 (Homo sapiens) (UniProt Q9P1W9); settings: Compound concentration 1000.0 nM
[28] = system: Receptor-type tyrosine-protein kinase FLT3 (Homo sapiens), P36888 [N841I]; settings: Compound concentration 1000.0 nM
[29] = target: Bone morphogenetic protein receptor type-1B (Homo sapiens) (UniProt O00238); settings: Compound concentration 1000.0 nM
[30] = target: Phosphatidylinositol 4,5-bisphosphate 3-kinase catalytic subunit alpha isoform (Homo sapiens) (UniProt P42336); settings: Compound concentration 1000.0 nM
[31] = target: T1, 5-hydroxytryptamine receptor 3A (Homo sapiens) (UniProt P46098); settings: Compound concentration 10.0 uM
T1 sequence (whole entry): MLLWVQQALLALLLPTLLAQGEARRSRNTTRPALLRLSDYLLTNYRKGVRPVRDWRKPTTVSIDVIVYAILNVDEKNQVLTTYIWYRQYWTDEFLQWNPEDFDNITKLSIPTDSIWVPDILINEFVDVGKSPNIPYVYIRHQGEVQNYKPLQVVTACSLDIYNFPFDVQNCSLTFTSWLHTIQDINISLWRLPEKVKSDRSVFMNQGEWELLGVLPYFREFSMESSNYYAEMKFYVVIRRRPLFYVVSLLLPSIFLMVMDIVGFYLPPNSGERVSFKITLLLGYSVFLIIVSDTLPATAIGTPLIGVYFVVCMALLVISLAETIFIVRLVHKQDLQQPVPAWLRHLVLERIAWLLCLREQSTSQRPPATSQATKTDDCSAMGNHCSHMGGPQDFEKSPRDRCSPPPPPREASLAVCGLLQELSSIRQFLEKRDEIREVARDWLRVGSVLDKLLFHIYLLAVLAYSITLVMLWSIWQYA

[32] = system: Tyrosine-protein kinase ABL1 (Homo sapiens), P00519 [Q252H]; settings: Compound concentration 1000.0 nM
[33] = target: Cyclin-dependent kinase 19 (Homo sapiens) (UniProt Q9BWU1); settings: Compound concentration 1000.0 nM
[34] = system: ALK tyrosine kinase receptor (Homo sapiens), Q9UM73 [C1156Y]; settings: Compound concentration 1000.0 nM
[35] = target: Tyrosine-protein kinase JAK1 (Homo sapiens) (UniProt P23458); settings: Compound concentration 1000.0 nM
[36] = target: Myosin-IIIb (Homo sapiens) (UniProt Q8WXR4); settings: Compound concentration 1000.0 nM
[37] = target: Dual specificity testis-specific protein kinase 1 (Homo sapiens) (UniProt Q15569); settings: Compound concentration 1000.0 nM
[38] = target: Dual specificity mitogen-activated protein kinase kinase 5 (Homo sapiens) (UniProt Q13163); settings: Compound concentration 1000.0 nM

Tyrosine-protein kinase Yes (Homo sapiens), sequence (P07947 2-543 limits assumed): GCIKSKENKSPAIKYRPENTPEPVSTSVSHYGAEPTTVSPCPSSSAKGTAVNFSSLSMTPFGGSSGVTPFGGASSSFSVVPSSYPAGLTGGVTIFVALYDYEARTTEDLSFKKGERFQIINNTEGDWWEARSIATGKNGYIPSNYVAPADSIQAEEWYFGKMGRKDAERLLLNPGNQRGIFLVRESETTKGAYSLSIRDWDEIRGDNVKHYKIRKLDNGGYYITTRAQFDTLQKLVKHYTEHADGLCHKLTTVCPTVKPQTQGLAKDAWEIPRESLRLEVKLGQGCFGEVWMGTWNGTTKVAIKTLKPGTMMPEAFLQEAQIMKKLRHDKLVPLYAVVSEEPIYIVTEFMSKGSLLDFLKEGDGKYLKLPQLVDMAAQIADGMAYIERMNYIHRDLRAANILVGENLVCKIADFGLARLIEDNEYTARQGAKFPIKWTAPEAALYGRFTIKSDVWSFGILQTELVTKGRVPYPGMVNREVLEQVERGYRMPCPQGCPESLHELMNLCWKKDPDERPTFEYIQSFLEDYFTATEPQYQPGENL
Macrophage colony-stimulating factor 1 receptor (Homo sapiens), sequence (P07333 whole entry): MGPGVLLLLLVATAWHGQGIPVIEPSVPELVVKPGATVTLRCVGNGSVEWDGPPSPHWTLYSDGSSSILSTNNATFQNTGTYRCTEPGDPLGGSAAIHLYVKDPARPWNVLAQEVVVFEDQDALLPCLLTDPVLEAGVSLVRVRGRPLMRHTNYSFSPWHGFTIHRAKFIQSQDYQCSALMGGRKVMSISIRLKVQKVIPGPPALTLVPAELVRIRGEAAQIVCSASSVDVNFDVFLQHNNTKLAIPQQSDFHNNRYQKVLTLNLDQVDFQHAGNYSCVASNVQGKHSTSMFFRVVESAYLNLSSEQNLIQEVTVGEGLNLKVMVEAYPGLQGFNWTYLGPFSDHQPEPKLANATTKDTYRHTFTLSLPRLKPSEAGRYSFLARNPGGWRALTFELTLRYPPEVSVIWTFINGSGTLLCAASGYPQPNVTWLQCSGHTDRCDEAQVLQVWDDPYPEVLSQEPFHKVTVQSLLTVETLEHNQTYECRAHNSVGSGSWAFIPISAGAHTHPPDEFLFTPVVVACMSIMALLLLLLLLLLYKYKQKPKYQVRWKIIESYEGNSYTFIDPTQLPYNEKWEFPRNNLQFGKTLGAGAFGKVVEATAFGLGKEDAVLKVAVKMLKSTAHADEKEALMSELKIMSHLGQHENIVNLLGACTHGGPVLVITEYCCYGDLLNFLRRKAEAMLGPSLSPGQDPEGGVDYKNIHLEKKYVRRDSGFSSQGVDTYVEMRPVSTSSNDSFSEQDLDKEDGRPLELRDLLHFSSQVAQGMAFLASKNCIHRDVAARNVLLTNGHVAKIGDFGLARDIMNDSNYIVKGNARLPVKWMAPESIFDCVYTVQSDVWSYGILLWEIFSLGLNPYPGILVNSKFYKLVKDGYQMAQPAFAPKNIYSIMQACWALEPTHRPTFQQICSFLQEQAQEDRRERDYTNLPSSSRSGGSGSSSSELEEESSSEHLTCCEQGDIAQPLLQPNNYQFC
Ribosomal protein S6 kinase alpha-3 (Homo sapiens), sequence (P51812 whole entry): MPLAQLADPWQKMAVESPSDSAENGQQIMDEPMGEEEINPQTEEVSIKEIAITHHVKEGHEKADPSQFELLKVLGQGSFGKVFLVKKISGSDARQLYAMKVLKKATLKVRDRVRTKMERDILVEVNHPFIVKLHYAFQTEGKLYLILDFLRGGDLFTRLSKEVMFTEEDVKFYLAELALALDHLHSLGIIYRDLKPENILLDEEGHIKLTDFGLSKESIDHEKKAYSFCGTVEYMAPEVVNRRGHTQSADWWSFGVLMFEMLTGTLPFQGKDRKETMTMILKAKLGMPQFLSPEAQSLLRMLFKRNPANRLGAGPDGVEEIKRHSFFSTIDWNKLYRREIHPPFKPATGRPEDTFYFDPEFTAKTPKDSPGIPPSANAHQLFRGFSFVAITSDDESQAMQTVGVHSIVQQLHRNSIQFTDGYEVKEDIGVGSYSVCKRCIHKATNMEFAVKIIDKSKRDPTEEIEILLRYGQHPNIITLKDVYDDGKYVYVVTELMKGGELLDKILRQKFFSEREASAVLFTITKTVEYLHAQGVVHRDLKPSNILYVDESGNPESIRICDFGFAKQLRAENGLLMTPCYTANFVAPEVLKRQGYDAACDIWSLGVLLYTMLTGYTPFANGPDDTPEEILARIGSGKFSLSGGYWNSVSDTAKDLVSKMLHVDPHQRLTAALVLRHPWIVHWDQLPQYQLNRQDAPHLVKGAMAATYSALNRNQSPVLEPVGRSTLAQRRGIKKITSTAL
Phosphatidylinositol 4,5-bisphosphate 3-kinase catalytic subunit alpha isoform (Homo sapiens), sequence (P42336 whole entry, canonical isoform): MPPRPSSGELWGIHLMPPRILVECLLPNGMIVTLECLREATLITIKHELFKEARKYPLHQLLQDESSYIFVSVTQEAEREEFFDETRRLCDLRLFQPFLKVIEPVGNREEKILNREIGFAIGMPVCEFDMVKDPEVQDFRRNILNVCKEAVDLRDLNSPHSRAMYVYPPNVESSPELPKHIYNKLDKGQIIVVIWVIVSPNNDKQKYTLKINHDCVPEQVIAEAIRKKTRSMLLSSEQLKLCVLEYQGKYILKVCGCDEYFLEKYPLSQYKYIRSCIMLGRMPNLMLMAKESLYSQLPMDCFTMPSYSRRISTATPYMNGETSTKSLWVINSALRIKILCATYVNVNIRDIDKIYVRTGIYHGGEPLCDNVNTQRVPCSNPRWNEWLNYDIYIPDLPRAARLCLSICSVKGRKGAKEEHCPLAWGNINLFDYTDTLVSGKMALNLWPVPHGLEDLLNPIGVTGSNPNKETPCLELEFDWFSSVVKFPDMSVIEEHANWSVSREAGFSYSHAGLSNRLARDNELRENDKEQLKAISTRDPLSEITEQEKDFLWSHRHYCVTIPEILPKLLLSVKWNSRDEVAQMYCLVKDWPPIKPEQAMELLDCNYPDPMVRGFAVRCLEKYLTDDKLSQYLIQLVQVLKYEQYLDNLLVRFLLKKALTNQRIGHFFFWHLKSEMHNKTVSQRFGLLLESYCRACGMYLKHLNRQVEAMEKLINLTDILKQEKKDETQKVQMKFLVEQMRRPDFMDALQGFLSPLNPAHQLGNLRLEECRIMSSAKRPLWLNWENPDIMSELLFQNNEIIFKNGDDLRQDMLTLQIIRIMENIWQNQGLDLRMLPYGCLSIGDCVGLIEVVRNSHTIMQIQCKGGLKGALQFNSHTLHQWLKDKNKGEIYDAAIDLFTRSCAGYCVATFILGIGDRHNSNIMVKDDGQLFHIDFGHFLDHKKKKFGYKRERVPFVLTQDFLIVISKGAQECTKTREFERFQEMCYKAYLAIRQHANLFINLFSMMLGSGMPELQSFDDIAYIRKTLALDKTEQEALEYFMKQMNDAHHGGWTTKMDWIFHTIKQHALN
Proto-oncogene tyrosine-protein kinase receptor Ret (Homo sapiens), sequence (P07949 whole entry): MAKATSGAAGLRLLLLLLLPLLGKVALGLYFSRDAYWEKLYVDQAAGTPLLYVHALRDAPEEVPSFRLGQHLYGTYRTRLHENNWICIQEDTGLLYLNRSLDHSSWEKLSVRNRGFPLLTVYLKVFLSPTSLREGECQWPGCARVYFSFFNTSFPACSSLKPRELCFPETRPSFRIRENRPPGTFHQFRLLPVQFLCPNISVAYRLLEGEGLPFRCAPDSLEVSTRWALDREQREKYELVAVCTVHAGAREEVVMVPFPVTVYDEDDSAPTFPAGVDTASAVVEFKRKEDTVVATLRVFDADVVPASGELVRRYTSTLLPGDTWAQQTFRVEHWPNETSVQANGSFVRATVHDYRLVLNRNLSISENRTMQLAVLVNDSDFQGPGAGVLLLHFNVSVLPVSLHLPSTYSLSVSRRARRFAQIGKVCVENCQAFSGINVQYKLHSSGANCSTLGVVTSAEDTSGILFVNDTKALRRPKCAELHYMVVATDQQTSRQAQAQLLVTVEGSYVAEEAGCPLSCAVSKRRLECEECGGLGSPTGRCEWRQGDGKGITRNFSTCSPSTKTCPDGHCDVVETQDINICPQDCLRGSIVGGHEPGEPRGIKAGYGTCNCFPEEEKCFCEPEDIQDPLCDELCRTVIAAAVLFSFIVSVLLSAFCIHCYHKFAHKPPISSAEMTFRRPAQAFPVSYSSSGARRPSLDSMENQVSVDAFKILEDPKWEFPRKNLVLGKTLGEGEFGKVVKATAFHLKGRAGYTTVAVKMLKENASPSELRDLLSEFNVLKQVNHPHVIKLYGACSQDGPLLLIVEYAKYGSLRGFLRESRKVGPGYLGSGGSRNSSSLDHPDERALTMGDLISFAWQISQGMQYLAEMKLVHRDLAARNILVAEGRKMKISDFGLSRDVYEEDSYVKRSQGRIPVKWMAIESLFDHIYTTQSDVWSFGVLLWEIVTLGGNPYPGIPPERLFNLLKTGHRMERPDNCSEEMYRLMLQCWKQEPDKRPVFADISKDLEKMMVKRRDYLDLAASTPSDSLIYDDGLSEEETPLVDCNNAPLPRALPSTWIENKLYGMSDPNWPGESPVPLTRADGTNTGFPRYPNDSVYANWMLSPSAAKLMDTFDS
Mitogen-activated protein kinase 13 (Homo sapiens), sequence (O15264 whole entry): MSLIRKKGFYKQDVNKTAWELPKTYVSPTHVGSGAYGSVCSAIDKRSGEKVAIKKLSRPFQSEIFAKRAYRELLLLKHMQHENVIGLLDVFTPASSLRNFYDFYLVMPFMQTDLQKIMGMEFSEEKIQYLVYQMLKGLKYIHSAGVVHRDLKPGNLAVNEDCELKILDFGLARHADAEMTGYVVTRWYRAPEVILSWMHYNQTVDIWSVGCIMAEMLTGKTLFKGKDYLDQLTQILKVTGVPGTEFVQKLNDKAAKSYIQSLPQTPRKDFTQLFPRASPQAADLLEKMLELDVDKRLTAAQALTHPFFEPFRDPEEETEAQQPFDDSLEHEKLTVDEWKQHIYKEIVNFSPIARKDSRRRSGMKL

CC(=O)N1CCC(c2ccc(C(=O)NC(=N)N)cc2C(F)(F)F)CC1 [BI 9627]
inactive: residual activity [1] 100% | residual activity [2] 100% | residual activity [3] 100% | residual activity [4] 100% | residual activity [5] 100% | residual activity [6] 100% | residual activity [7] 83% | residual activity [8] 100% | residual activity [9] 85% | residual activity [10] 90% | residual activity [11] 100% | residual activity [12] 100% | residual activity [13] 100% | residual activity [14] 100% | residual activity [15] 86% | residual activity [16] 89% | residual activity [17] 100% | residual activity [18] 98% | residual activity [19] 100% | residual activity [20] 95% | residual activity [21] 100% | residual activity [22] 100% | residual activity [23] 100% | residual activity [24] 77% | residual activity [25] 94% | residual activity [26] 100% | residual activity [27] 100% | residual activity [28] 100% | residual activity [29] 100% | residual activity [30] 100% | inhibition [31] -6.68% | residual activity [32] 79% | residual activity [33] 100% | residual activity [34] 100% | residual activity [35] 100% | residual activity [36] 100% | residual activity [37] 95% | residual activity [38] 86%

CC(=O)N1CCC(c2ccc(C(=O)NC3=NCCN3)cc2C(F)(F)F)CC1 [BI 0054]
inactive: residual activity [1] 100% | residual activity [2] 100% | residual activity [3] 99% | residual activity [4] 99% | residual activity [5] 99% | residual activity [6] 76% | residual activity [7] 75% | residual activity [8] 100% | residual activity [9] 94% | residual activity [10] 88% | residual activity [11] 100% | residual activity [12] 100% | residual activity [13] 100% | residual activity [14] 100% | residual activity [15] 93% | residual activity [16] 83% | residual activity [17] 88% | residual activity [18] 100% | residual activity [19] 100% | residual activity [20] 100% | residual activity [21] 100% | residual activity [22] 100% | residual activity [23] 94% | residual activity [24] 55% | residual activity [25] 74% | residual activity [26] 100% | residual activity [27] 100% | residual activity [28] 94% | residual activity [29] 89% | residual activity [30] 100% | inhibition [31] -4.49% | residual activity [32] 88% | residual activity [33] 100% | residual activity [34] 100% | residual activity [35] 100% | residual activity [36] 100% | residual activity [37] 72% | residual activity [38] 92%
